biological target: T1, human PPARγ1 (Homo sapiens, UniProt P37231); assay: Human PPARγ1 antagonist assay (luciferase reporter in PPARγ:RXRα:4ERPP/CHO-K1 cells); type: cell-based; details: test compound 10^−5 M, 10 nM compound A as stimulant, luciferase activity, 24 hrs, read-out: Inhibitory rate (%)
T1 construct: expressed in transfected cells; host or cells: CHO-K1 cells stably transfected with pVgRXR2-hPPARγ and reporter plasmid pGL3-4ERPP-TK neo
T1 sequence (P37231 1-477 isoform P37231-2): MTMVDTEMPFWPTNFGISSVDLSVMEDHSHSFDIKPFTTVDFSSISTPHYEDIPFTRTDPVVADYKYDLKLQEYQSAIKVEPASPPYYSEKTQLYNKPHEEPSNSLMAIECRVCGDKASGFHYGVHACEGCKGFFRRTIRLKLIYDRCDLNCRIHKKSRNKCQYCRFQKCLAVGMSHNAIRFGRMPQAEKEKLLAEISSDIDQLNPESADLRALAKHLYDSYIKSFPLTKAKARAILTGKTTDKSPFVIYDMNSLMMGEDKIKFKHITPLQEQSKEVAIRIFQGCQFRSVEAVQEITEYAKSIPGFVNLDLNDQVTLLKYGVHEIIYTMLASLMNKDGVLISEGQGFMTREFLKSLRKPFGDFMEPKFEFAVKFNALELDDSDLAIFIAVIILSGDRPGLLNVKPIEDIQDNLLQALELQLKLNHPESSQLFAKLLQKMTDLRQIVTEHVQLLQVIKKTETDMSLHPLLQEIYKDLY
T1 sequence (P19793 1-462 partner): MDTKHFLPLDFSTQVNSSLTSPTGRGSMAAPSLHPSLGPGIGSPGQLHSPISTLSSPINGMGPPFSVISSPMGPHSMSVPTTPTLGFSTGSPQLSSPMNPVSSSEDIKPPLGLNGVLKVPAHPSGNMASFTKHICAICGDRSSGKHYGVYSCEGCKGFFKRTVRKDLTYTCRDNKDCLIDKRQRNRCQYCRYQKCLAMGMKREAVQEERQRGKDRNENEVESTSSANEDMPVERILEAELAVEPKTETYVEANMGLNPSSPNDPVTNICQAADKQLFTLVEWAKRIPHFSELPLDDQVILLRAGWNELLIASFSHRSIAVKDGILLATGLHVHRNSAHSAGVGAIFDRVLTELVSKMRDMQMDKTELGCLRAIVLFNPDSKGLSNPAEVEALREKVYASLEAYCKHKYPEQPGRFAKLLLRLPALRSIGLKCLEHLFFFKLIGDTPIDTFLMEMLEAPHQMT
Procedure: PPARγ:RXRα:4ERPP/CHO-K1 cells (obtained in Reference Example 5a) cultured in Ham's F-12 medium (GIBCO, Inc.) supplemented with 10% fetal bovine serum (TRACE SCIENTIFIC, Ltd.) were seeded in a well of a 96 well white plate at 2×10^4 cells/well and cultured under 37° C. 5% CO2 conditions for 24 hrs. After removal of the medium, Ham's F-12 medium (GIBCO) containing 60 μl of 0.1% BSA (not containing fatty acid) (Wako Pure Chemical Industries, Ltd.), 20 μl of 10^−5M or 10^−6 M test compound and 20 μl of compound A having a final concentration of 10 nM as a stimulant were added, and the cells were cultured under 37° C. 5% CO2 conditions for 24 hrs. After removal of the medium, 40 μl of Pickagene LT7.5 (Wako Pure Chemical Industries, Ltd.) 2-fold diluted with HBSS (HANKS' BALANCED SALT SOLUTION) (BIO WHITTAKER Inc.) was added. After stirring, luciferase activity was measured using 1420 ARVO Multilabel Counter (Wallac, Inc.). In addition, a test similar to the above was conducted for the non-use of the aforementioned test compound alone and for the non-use of the aforementioned test compound and compound A to determine the luciferase activity.
The human PPARγ1 antagonistic activity of the test compound was evaluated using percentages (% inhibition) wherein the luciferase activity when 10 nM compound A alone was added was 0%, and the luciferase activity when the test compound and compound A were not added was 100%. The concentration of the test compound was 10^−5 M for the compounds of Example 42 and 315 and 10^−6 M for other test compounds.
After a CHO-K1 cell cultured in a cell culture flask (150 cm^2) (produced by Corning Costar Corporation, USA) containing Ham's F-12 medium (produced by Life Technologies, Inc., USA) supplemented with 10% fetal bovine serum (produced by Life Technologies, Inc., USA) was detached by treating with 0.5 g/L trypsin-0.2 g/L EDTA (ethylenediaminetetraacetic acid) (produced by Life Technologies, Inc., USA), the cell was washed with PBS (phosphate-buffered saline) (produced by Life Technologies, Inc., USA), centrifuged (1000 rpm, 5 minutes), and then suspended in PBS. Subsequently, the DNA was introduced into the cells under the conditions shown below using GENE PULSER (produced by Bio-Rad Laboratories, USA).
Namely, to a cuvette having a 0.4 cm gap, added were 8×10^6 cells and 10 μg of plasmid pVgRXR2-hPPARγ obtained in Reference Example 4a and 10 μg of reporter plasmid pGL3-4ERPP-TK neo obtained in Reference Example 2a, which was subjected to electroporation at the voltage of 0.25 kV under the capacitance of 960 μF. Subsequently, the cell was transferred into a Ham's F-12 medium containing 10% fetal bovine serum and cultured for 24 hours and then the cells were detached again and centrifuged, and then suspended in HAM F12 medium containing 10% fetal bovine serum supplemented with 500 μg/ml of GENETICIN (produced by Life Technologies, Inc., USA) and 250 μg/ml of ZEOCIN (produced by Invitrogen, USA). The obtained suspension was diluted to the density of 10^4 cells/ml and inoculated to a 96-well plate (produced by Corning Costar Corporation, USA), which was cultured in a CO2 gas incubator at 37° C., whereby obtaining a GENETICIN- and ZEOCIN-resistant transformant. Subsequently, after the transformant cell line thus obtained was cultured in a 24-well plate (produced by Corning Costar Corporation, USA), selected was a cell line in which the luciferase was expressed and induced, i.e., PPARγ:RXRα:4ERPP/CHO-K1 cell by the addition of 10 μM pioglitazone hydrochloride.

Question: For `CCOP(=O)(/C=C/c1cn(-c2ccccc2)nc1OCc1ccc(OCc2nc(/C=C/C(=O)O)oc2C)c(OC)c1)OCC` [Example 315, (2E)-3-[4-({4-[({4-[(E)-2-(diethoxyphosphoryl)ethenyl]-1-phenyl-1H-pyrazol-3-yl}oxy)methyl]-2-methoxyphenoxy}methyl)-5-methyl-1,3-oxazol-2-yl]-2-propenoic acid], which inhibition at 10 µM is on record?
Answer: The inhibition at 10 µM was 112%.

same assay, conditions: test compound 10^−6 M, 10 nM compound A as stimulant, luciferase activity, 24 hrs, read-out: Inhibitory rate (%)

Question: `CCOP(=O)(/C=C/c1cn(-c2ccccc2)nc1OCc1ccc(OCc2nc(-c3cccc(CC(=O)O)c3)oc2C)c(OC)c1)OCC` [Example 249, {3-[4-({4-[({4-[(E)-2-(diethoxyphosphoryl)ethenyl]-1-phenyl-1H-pyrazol-3-yl}oxy)methyl]-2-methoxyphenoxy}methyl)-5-methyl-1,3-oxazol-2-yl]phenyl}acetic acid] was tested. Which inhibition at 1 µM did it give?
Answer: The inhibition at 1 µM was 108%.

Question: `CCOP(=O)(/C=C/c1cn(-c2ccccc2)nc1OCc1ccc(OCc2nc(-c3ccc(OC)c(C(=O)O)c3)oc2C)c(OC)c1)OCC` [Example 252, 5-{4-({4-[({4-[(E)-2-(diethoxyphosphoryl)ethenyl]-1-phenyl-1H-pyrazol-3-yl}oxy)methyl]-2-methoxyphenoxy}methyl)-5-methyl-1,3-oxazol-2-yl}-2-methoxybenzoic acid] was tested. Which inhibition at 1 µM did it give?
Answer: The inhibition at 1 µM was 111%.

Question: Which inhibition at 1 µM does the source give for `COc1cc(COc2nn(-c3ccccc3)cc2/C=C/C#N)ccc1OCc1nc(-c2ccccc2)oc1C` [Example 282, (E)-3-(3-{[3-methoxy-4-(5-methyl-2-phenyl-1,3-oxazol-4-ylmethoxy)benzyl]oxy}-1-phenyl-1H-pyrazol-4-yl)-2-propenonitrile] here?
Answer: The inhibition at 1 µM was 69%.

Question: `CCOC(=O)/C=C/c1cn(-c2ccccc2)nc1OCc1ccc(OCc2nc(-c3ccccc3)oc2C)c(OC)c1` [Example 284, ethyl (E)-3-(3-{[3-methoxy-4-(5-methyl-2-phenyl-1,3-oxazol-4-ylmethoxy)benzyl]oxy}-1-phenyl-1H-pyrazol-4-yl)-2-propenoate] was tested. Which inhibition at 1 µM did it give?
Answer: The inhibition at 1 µM was 107%.

Question: `CCc1nc(/C=C/c2cn(-c3ccccc3)nc2OCc2ccc(OCc3nc(-c4cccc(C(=O)O)c4)oc3C)c(OC)c2)co1` [Example 307] was tested. Which inhibition at 1 µM did it give?
Answer: Its inhibition at 1 µM is 108%.

Question: Which inhibition at 1 µM does the source give for `CCOP(=O)(/C=C/c1cn(-c2ccccc2)nc1OCc1ccc(OCc2nc(-c3cccc(-c4nnn[nH]4)c3)oc2C)c(OC)c1)OCC` [Example 336, {(E)-2-(3-{[3-methoxy-4-({5-methyl-2-[3-(1H-tetrazol-5-yl)phenyl]-1,3-oxazol-4-yl}methoxy)benzyl]oxy}-1-phenyl-1H-pyrazol-4-yl)ethenyl}phosphonate diethyl] here?
Answer: Its inhibition at 1 µM is 102%.

Question: For `CCc1nc(/C=C/c2cn(-c3ccccc3)nc2OCc2ccc(OCc3nc(-c4ccc(CC(=O)O)cc4)oc3C)c(OC)c2)cs1` [Example 337, {4-[4-({4-[({4-[(E)-2-(2-ethyl-1,3-thiazol-4-yl)ethenyl]-1-phenyl-1H-pyrazol-3-yl}oxy)methyl]-2-methoxyphenoxy}methyl)-5-methyl-1,3-oxazol-2-yl]phenyl}acetic acid], which inhibition at 1 µM is on record?
Answer: The inhibition at 1 µM was 110%.

Question: Which inhibition at 1 µM does the source give for `CCn1cnc(/C=C/c2cn(-c3ccccc3)nc2OCc2ccc(OCc3nc(-c4ccc(CC(=O)O)cc4)oc3C)c(OC)c2)c1` [Example 344, (4-{4-[(4-[({4-[(E)-2-(1-ethyl-1H-imidazol-4-yl)ethenyl]-1-phenyl-1H-pyrazol-3-yl}oxy)methyl]-2-methoxyphenoxy)methyl]-5-methyl-1,3-oxazol-2-yl}phenyl)acetic acid] here?
Answer: The inhibition at 1 µM was 103%.

Question: For `COc1cc(COc2nn(-c3ccccc3)cc2/C=C/c2csc(C)n2)ccc1OCc1nc(-c2ccc(CC(=O)O)cc2)oc1C` [Example 357, {4-[4-({2-methoxy-4-[({4-[(E)-2-(2-methyl-1,3-thiazol-4-yl)ethenyl]-1-phenyl-1H-pyrazol-3-yl}oxy)methyl]phenoxy}methyl)-5-methyl-1,3-oxazol-2-yl]phenyl}acetic acid], which inhibition at 1 µM is on record?
Answer: Its inhibition at 1 µM is 103%.

Question: For `COc1cc(COc2nn(-c3ccccc3)cc2/C=C/c2csc(C(C)C)n2)ccc1OCc1nc(-c2ccc(CC(=O)O)cc2)oc1C` [Example 361, {4-[4-({4-[({4-[(E)-2-(2-isopropyl-1,3-thiazol-4-yl)ethenyl]-1-phenyl-1H-pyrazol-3-yl}oxy)methyl]-2-methoxyphenoxy}methyl)-5-methyl-1,3-oxazol-2-yl]phenyl}acetic acid], which inhibition at 1 µM is on record?
Answer: The inhibition at 1 µM was 110%.

Question: How did the inhibition at 1 µM turn out when `CCc1nc(/C=C/c2cn(-c3ccccc3)nc2OCc2ccc(OCc3nc(-c4ccc(CC(=O)O)cc4)oc3C)c(OC)c2)co1` [Example 369, {4-[4-({4-[({4-[(E)-2-(2-ethyl-1,3-oxazol-4-yl)ethenyl]-1-phenyl-1H-pyrazol-3-yl}oxy)methyl]-2-methoxyphenoxy}methyl)-5-methyl-1,3-oxazol-2-yl]phenyl}acetic acid] was run?
Answer: Its inhibition at 1 µM is 108%.

Question: `COc1cc(COc2nn(-c3ccccc3)cc2/C=C/c2coc(C(C)C)n2)ccc1OCc1nc(-c2ccc(CC(=O)O)cc2)oc1C` [Example 370, {4-[4-({4-[({4-[(E)-2-(2-isopropyl-1,3-oxazol-4-yl)ethenyl]-1-phenyl-1H-pyrazol-3-yl}oxy)methyl]-2-methoxyphenoxy}methyl)-5-methyl-1,3-oxazol-2-yl]phenyl}acetic acid] was tested. Which inhibition at 1 µM did it give?
Answer: Its inhibition at 1 µM is 111%.

Reference: patent publication US7368578B2, “Five-membered heterocyclic compounds” (Takeda Pharmaceutical Company Limited, priority 2002, dated 2008)
